From patent publication US20020151487A1, “Method and reagents for epithelial barrier formation and treatment of malignant and benign skin disorders by modulating the notch pathway” (Loyola University Chicago, priority 2000, published 2002)

Key:
[1] = target: IKKα; assay: IKKα immunocomplex kinase assay; format: cell-based, human; settings: for kinase activity of IKKα: substrate GST-IκBα (1-54), after 30 and 60 minutes
Description: For immunoprecipitation 2 μg of anti-IKKα and anti-IKKβ were added to the whole cell lysate for 2 hours on ice. 30 μl of protein A-G sepharose beads were added and incubated at […] for 90 minutes. Beads were washed 3 times in wash buffer, and the beads were boiled with 2xSDS sample buffer. Kinase activity was performed using GST-IκBα as substrate (Hu et al., Science, 284, 316-20 (1999)).

[2] = system: keratinocytes; assay: Terminal differentiation of cultured keratinocyte monolayers; format: cell-based, human; settings: for loricrin and involucrin immunostaining: 2 mM calcium keratinocyte cultures; for stratification of keratinocyte monolayer: 2 mM calcium, as early as 3 days following addition
Description: (§1) Keratinocyte cultures were initiated from discarded neonatal foreskins, in which epidermis was separated from dermis using dispase (Mukherjee et al, Chemical and Structural Approaches to Rational Drug Design (Weiner et al., eds.) CRC Press, pp. 237-61 (Boca Raton, 1994). Keratinocytes were induced to proliferating using a low calcium (0.07 mM), serum-free medium (KGM, Clonetics Corp., San Diego, Calif.). Keratinocytes were grown in 10 cm plastic petri dishes, and passaged at 60-70% confluency, and maintained in a humidified incubator at 37° C. with 5% CO2. Keratinocytes were also grown in 8-well Lab Tek Chambers as previously described (Mukherjee et al., supra). Keratinocytes were used between 2 and 4 passages. In some experiments, keratinocytes were pre-treated with KGM containing an elevated calcium ion concentration (i.e. 2 mM) for 24 hrs prior to addition of JAG-1 peptide, or other stimuli as indicated.
(§2) Portions of the epidermal equivalents were fixed in 10% neutral buffered formalin, embedded in paraffin and routinely stained with 1% hematoxylin and eosin. […] When using Lab Tek cultures, these slides were rinsed in PBS and fixed with ice-chilled acetone for 10 mins prior to addition of primary antibodies. Cryostat sections of skin also were fixed using ice-cold acetone. In all cases, a highly sensitive avidin biotin peroxidase procedure (Vectastain Kit, Vector Labs, Burlingame, Calif.) was used with a positive red reaction product obtained using […] as the chromagen.

[3] = system: epidermal equivalents; assay: Living epidermal equivalent model system; format: cell-based, human; settings: for terminal differentiation and cornification: continuously submerged cultures, 4 days later
Description: Reconstituted epidermis, known as epidermal equivalents were purchased from MatTek Corp., Ashland, Mass.
as §2
For these experiments a living epidermal equivalent model system was used, because it provided an opportunity to examine the individual components of the Notch pathway (i.e. Notch ligand and receptors) before, and after, induction of differentiation for keratinocytes maintained in a multi-layered or stratified configuration that closely resembles normal human skin. Epidermal equivalents consist of keratinocytes grown to produce a multi-layered structure that are initially prepared using submerged keratinocytes. Following this initial preparation, the cultures are exposed to an air-liquid interface in a moistened chamber for three days that can initiate the early stage of differentiation, designated as day 0. Under these conditions, approximately 5-7 layers are produced with a progressive flattening of the top level keratinocytes, which can include occasional cells with keratohyalin granules, and focal appearance of loricrin positive cells and corneocytes. When cultures arrived at day 0, they can either be re-submerged in medium or lifted-up and maintained on a support to create an air-liquid interface within a tissue culture well. After lifting of the cultures, the multi-layered keratinocytes are exposed to the air, with the subjacent membrane being moistened and fed only from the underlying medium within the well. Lifting the cultures at day 0, triggers the terminal differentiation process, which typically is completed within about 5 to about 7 days.

[4] = system: NF-κB; assay: NF-κB luciferase assay in transfected keratinocytes; format: cell-based, human
Description: as §1
To perform the luciferase-based NF-κB assays, normal keratinocytes were seeded in 6-well plates as previously described (Qin et al., supra). At approximately 50% to 60% confluence, the cells were co-transfected with 0.8 μg of pNF-κB-LUC vector (CLONTECH Laboratories, Palo Alto, Calif.) containing a firefly luciferase gene with K enhancer and 0.2 μg of PRL-TK plasmid DNA which contains Renella Luciferase gene to normalize the transfection efficiency. The same amount of control vector in which the κ enhancer was removed from pNF-κB-LUC was also used to co-transfect the cells.
DNA was transfected into keratinocytes using Fu-Gene 6 Transfection Reagent (Roche Molecular Biochemicals) according to the manufacturer's protocol. After 36 hours of transfection, cells were treated with either TNF-α (10^3 U/ml; R&D Systems, Minneapolis, Minn.) or the indicated peptides.
The preparation of cell lysate and luciferase activity measurements were made with DUAL LUCIFERASE™ Reporter Assay System (Promega, Madison Wis.) according to the manufacturer's instructions. The sample was placed in a TD-20/20 luminometer (CLONTECH Laboratories) for detection of light intensity.

[5] = system: p50 and p65 subunits; assay: Western blot of keratinocyte nuclei for NF-κB subunits; format: cell-based, human; settings: keratinocytes in 2 mM calcium; 30 minutes and 1 hour after addition
Description: (§3) Whole cell lysates, or nuclear and cytoplasmic extracts, were prepared to detect different proteins as previously described (Chaturvedi et al., J. Biol. Chem., 274, 2358-67 (1999)). Briefly, keratinocytes were washed with ice cold phosphate buffered saline (PBS), and harvested by scraping the monolayers into 1 ml PBS, and pelleted in a […] microcentrifuge tube. The cell pellet was suspended in 400 μl of buffer A (10 mM HEPES, 10 mM KCl, 1 mM EDTA, 1 mM EGTA, 1 mM dithiothreitol, 0.5 mM phenylmethlysulfonyl fluoride, and 5 μg/ml leupeptin). After 20 min incubation on ice, 25 μl of 10% Nonidet P-40 was added and then centrifuged briefly. The supernatant represented the cytoplasmic extracts. The nuclear pellet was resuspended in 60-80 μl of buffer C (20 mM HEPES, 0.4 M NaCl, 1 mM EDTA, 1 mM EGTA, 1 mM dithiothreitol, 0.5 mM phenylmethylsulfonyl fluoride, and 5 μg/ml leupeptin) and incubated at 4° C. with shaking for 15 min. The nuclear debris was removed by centrifugation at 4° C.
(§4) For the whole cell lysate, cells were washed with cold PBS and incubated in CHAPS buffer on ice for 15 min. After centrifugation at 4° C., the supernatants were saved as whole cell lysate. The protein concentration of each sample was determined with Bio-Rad protein assay reagent. […]

[6] = system: NF-κB; assay: Electromobility shift assay (EMSA) of keratinocyte nuclear extracts; format: cell-based, human; settings: heterodimers p50 and p65 and p50/p50 homodimers
Description: EMSA were done as described previously (Qin et al., supra). 5 μg of nuclear proteins were incubated on ice with 1 μg of poly(dI-dC) (Amersham Pharmacia Biotech) in a buffer containing 10 mM HEPES, 60 mM KCl, 1 mM dithiothreitol, 1 mM EDTA, and 4% Ficoll for 10 min. The ^32P-labeled double strand NF-κB binding oligonucleotide (10^5 cpm) was then added to the reaction mixture for an additional 20 min on ice. The NF-κB oligonucleotide had the following sequence: SEQ ID NO:14 (5′-[…]-3′). For experiments involving supershift analysis, 2-4 μg of polyclonal antibodies against different subunits of NF-κB (Santa Cruz Biotech) were incubated with nuclear proteins for 30 min on ice prior to addition of ^32P-labeled NF-κB probe. All the reaction mixtures were resolved on 4% polyacrylamide gels.

[7] = system: IκBα; assay: Western blot of keratinocyte cytoplasmic extracts for IκB proteins; format: cell-based, human
Description: as §3
For the whole cell lysate, cells were washed with cold PBS and incubated in CHAPS buffer on ice for 15 min. After centrifugation at 4° C., the supernatants were saved as whole cell lysate. The protein concentration of each sample was determined with Bio-Rad protein assay reagent. 30 μg of protein were loaded on 8-12.5% SDS-polyacrylamide gel, transferred to Immobilon-P (polyvinylidene difluoride) membrane and blocked in 5% powdered milk in TBST (50 mM Tris, pH 7.5, 150 mM NaCl, 0.01% Tween 20). The membrane was incubated with primary antibody overnight at 4° C. in 2.5% powdered milk in TBST and then was washed extensively with TBST, and incubated with 1:1500 anti-rabbit or mouse-HRP (Amersham Pharmacia Biotech). Proteins were visualized with the ECL detection kit (Amersham Pharmacia Biotech). The equivalent loading of proteins in each well was confirmed by Ponceau staining.

[8] = system: Notch 1; assay: Western blot for Notch 1 in keratinocytes; format: cell-based, human; settings: 6 hours and 24 hours after addition
Description: as §3, §4

[9] = system: Jagged-1 and Notch receptors; assay: Immunostaining of cultured keratinocyte monolayers for Jagged-1 and Notch receptors; format: cell-based, human
Description: as §1, §2

[10] = system: PKC-alpha; assay: PKC-alpha localization in keratinocytes; format: cell-based, human
Description: as §2

[11] = system: Notch-1; assay: Western blotting for Notch-1 in MOM-2b cells; format: cell-based; settings: 100 nM
Description: Two cultures of MOM-2b cells (an aggressive melanoma cell line) were cultured in standard medium alone or in the presence of 100 nM of a gamma secretase inhibitor, which interferes with Notch signaling (Supont Compound E; Seiffaert et al., J. Biol. Chem., 275, 34086 (2000)). The cells then were lysed and assayed for the presence of Notch-1 by Western blotting.

[12] = system: MOM-2b cells; assay: Invasion through MATRIOEL coated filters; format: cell-based; settings: MOM-2b cells pretreated overnight with 100 nM
Description: In a second experiment, MOM-2b cells were pretreated overnight with 100 nM compound E or untreated culture medium and then analyzed for invasive behavior by culturing them on MATRIOEL™ coated filters, into which aggressive melanoma will invade. After 20 hours, cells that have not invaded through the filters were discarded and cells that had migrated into the top of the filters were stained, lysed, and then assayed for absorbance at 350 nm to quantitate the number of cells that had invaded through the filter.

[13] = Cytotoxicity; format: cell-based; settings: concentrations <300 nM
[14] = re-submerged day 0 cultures, observed on day 5

R-JAG: second peptide with agonist activity (SEQ ID NO:12) derived from the same region of Jagged-1, with specific amino acid changes (CDDYYYGFGCNKFGRPRDD; r-JAG1 Notch ligand)
kinase activity of IKKα [1]: did activate
loricrin and involucrin immunostaining [2]: strong induction
stratification of keratinocyte monolayer [2]: began piling-up to form 3-dimensional stratified clusters
terminal differentiation and cornification ([3]; 40 μM added on day 0): triggered terminal differentiation and cornification

JAG-1: synthetic peptide with Notch agonist activity corresponding to Jagged-1 residues 188-204 (SEQ ID NO:11), part of the DSL region (CDDYYYGFGCNKFCRPR; JAG-1 Notch ligand)
NF-κB activation (luciferase) ([4]; high calcium (2 mM) medium): did trigger NF-κB activation
NF-κB activation (luciferase) ([4]; low calcium (0.07 mM) medium): not low calcium conditions
intranuclear levels of p50 and p65 subunits [5]: markedly enhanced intranuclear levels
NF-κB transcriptional activity (binding to NF-κB probe) [6]: can activate NF-κB transcriptional activity
relatively low constitutive level of IκBα ([7]; 7-minute to 6-hour time points): slightly reduced
cytoplasmic IκBα level (most prominent inhibitory protein) ([7]; after 24 hours): no consistent decline
relatively low constitutive level of IκBα ([7]; after 24 hours): became undetectable
Notch 1 levels [8]: decreased to barely detectable levels
Notch-1 cellular localization ([9]; 24 hours after stimulation): re-distributed to the cytoplasm
Notch 3 immunolocalization ([9]; after addition of peptide): disappearance of both membrane and cytosolic Notch 3
Notch 4 immunolocalization ([9]; after peptide stimulation): loss of membrane and cytosolic Notch 4
Jagged-1 cellular localization ([9]; keratinocytes in 2 mM calcium, twenty-four hours after addition): loss of this plasma membrane staining
amount of IKKα present ([1]; immediately following stimulation): not accompanied by any significant change
kinase activity of IKKα [1]: did activate
loricrin and involucrin immunostaining [2]: strong induction
stratification of keratinocyte monolayer [2]: began piling-up to form 3-dimensional stratified clusters
terminal differentiation and cornification ([3]; 50 μM added on day 0): triggered terminal differentiation and cornification
apoptosis in submerged epidermal equivalent [3, 14]: reduced the apoptotic process
loricrin expression in submerged epidermal equivalent [3, 14]: diffuse loricrin expression
stratum corneum formation in submerged epidermal equivalent [3, 14]: thick stratum corneum layer
PKC-alpha localization ([10]; epidermal equivalents, upper layers of differentiated keratinocytes): plasma membrane localization for PKC-alpha
PKC-alpha translocation (PKC activation) ([10]; keratinocyte monolayers): induced translocation of PKC-alpha from the cytoplasm to the plasma membrane

C[C@H](NC(=O)Cc1cc(F)cc(F)c1)C(=O)N[C@H]1N=C(c2ccccc2)c2ccccc2N(C)C1=O [compound E]
activation of Notch-1 [11]: completely blocked
OD350 (cells invaded through the filter) ([12]; after 20 hours): 0.378
inhibition of aggressive behavior in melanoma cells ([12]; versus control culture): 75%
cytotoxicity [13]: did not exhibit cytotoxicity

TNF-α [reference compound]
NF-κB activation (luciferase) ([4]; high calcium (2 mM) medium): positive control for NF-κB activation
NF-κB activation (luciferase) ([4]; low calcium (0.07 mM) medium): positive control for NF-κB activation
kinase activity of IKKα [1]: little effect

SC-JAG: scrambled control peptide without agonist activity (SEQ ID NO:13) (RCGPDCFDNYGRYKYCF; Scrambled JAG peptide) [reference compound]
kinase activity of IKKα [1]: little effect
terminal differentiation and cornification ([3]; 40 μM added on day 0): not
